This note sets out measurements from patent publication US12043645B2, “Adenosine analogs as methyltransferase inhibitors for treating cancer” (MEMORIAL SLOAN KETTERING CANCER CENTER, priority 2017, dated 2024).

The structures appear in SMILES notation. pEC50: −log10 of the molar value.

What all share (assay type): cell-based
The test system of assay [1] is MCF-7 cells (BAF155 and PABP1 biomarkers). Description: EC50 assay: western blot of BAF155 and PABP1 biomarkers in MCF-7 cells. The note with it: Homo sapiens, MCF7, 48 h, two days treatment. Here is the method:
(§1) 1˜2×10e^5 MCF-7 cells or MDA-MB-231 cells per were seeded into 6-well plate. Two days later, cells were treated with inhibitors or control for additional two days. Then cells were collected by trypsinization, washed with Dulbecco's phosphate buffer saline and lysed by suspension in lysis buffer. The suspension was kept on ice for 30 min to achieve complete lysis or the suspension can be sonicated to achieve complete lysis. After centrifugation, supernatant were collected and total protein was quantified, and western blot samples were prepared with the SDS sample buffer Proteins were transferred to a nitrocellulose membrane for 1.5 hr at 350 mA at cold room. Membranes were blocked with 5% nonfat milk dissolved in PBST at room temperature for 1 hour and incubated overnight with primary antibody diluted in 5% nonfat milk dissolved in PBST at 4° C. Membranes were then washed with PBST for 10 min/each three times, and incubated with HRP-conjugated secondary antibody for 1 hour at room temperature, and washed with PBST for 10 min/each three times, and then detected by ECL reaction and X-ray film exposure. BAF155 and PABP1 were used as biomarkers to determine the EC50 values.
On the technique in general: A western blot detects proteins with antibodies after separation by electrophoresis.

In assay [2] the test system is MDA-MB-231 cells (BAF155 and PABP1 biomarkers). Description: EC50 assay: western blot of BAF155 and PABP1 biomarkers in MDA-MB-231 cells. To be noted: Homo sapiens, 48 h, two days treatment. Here is the method:
as §1

The subject of assay [3] is HCC1954 breast cancer cells. Description: Transwell invasion assay. Here is the method: In another example, a compound's effect on cancer cell migration and invasion were evaluated in a transwell invasion assay. In one such example, addition of compound 6 in a concentration of 5 μM and 10 μM caused an approximately 50% and an approximately 75% reduction, respectively, of invasion of HCC1954 breast cancer cells in the assay.

What is called pEC50 is the negative decadic logarithm of the EC50, by convention in mol/L. With `COc1ccc(CCNC(=O)[C@@H](N)CC[C@H](CNCc2ccccc2)C[C@H]2O[C@@H](n3cnc4c(N)ncnc43)[C@@H](O)C2O)cc1` (stereo partly shown) [Example 1], in assay [1], the pEC50 was 4.82.
The same measure, in the same setting: with `CC(=O)Oc1cc(C)cc(C)c1C(C)(C)CC(=O)N[C@@H](CC[C@H](CNCc1ccccc1)C[C@H]1O[C@@H](n2cnc3c(N)ncnc32)[C@@H](O)C1O)C(=O)O` (stereo partly shown) [Example 2] the figure was 5.00; with `COc1ccc(CCNC(=O)[C@H](CC[C@H](CNCc2ccccc2)C[C@H]2O[C@@H](n3cnc4c(N)ncnc43)[C@@H](O)C2O)NC(=O)CC(C)(C)c2c(C)cc(C)cc2OC(C)=O)cc1` (stereo partly shown) [Example 3], more than 5.30; with `CC1=CC(=O)C(C(C)(C)CC(=O)N[C@@H](CC[C@H](CNCc2ccccc2)C[C@H]2O[C@@H](n3cnc4c(N)ncnc43)[C@@H](O)C2O)C(=O)O)=CC1=O` (stereo partly shown) [Example 4], more than 5.00.
Regarding `COc1ccc(CCNC(=O)C(CC[C@H](CNCc2ccccc2)C[C@H]2O[C@@H](n3cnc4c(N)ncnc43)[C@@H](O)C2O)NC(=O)CC(C)(C)C2=C(C)C(=O)C(C)=C(C)C2=O)cc1` (stereo partly shown) [Example 6], the negative-log EC50 (pEC50) in assay [2] is more than 6.30. For the same compound, the “reduction of invasion of HCC1954 breast cancer cells” value in assay [3] (concentration of 5 μM) was “approximately 50%”; in assay [3] (concentration of 10 μM) it was “approximately 75%”.
